Values of other authors, collected in article PMC3229099 (Acta biochimica Polonica, 2011).

How the values were obtained:
[1] = test system: δ receptor versus μ receptor; conditions: ref Pawlak et al, 1997
opioid δ receptors = conditions: in vivo studies with the use of selective opioid receptor antagonists; ref Kotlińska et al, 2009

Q: Which results are given for “amide of cyclo[N^ε, N^δ -carbonyl-D-Lys^2, Dap^5 ]enkephalin”?
A: GPI/MVD ratio [1]: 0.33; receptor type mediating antinociception in vivo (opioid δ receptors): induced antinociception predominantly through opioid δ receptors
